Source: patent publication US12257252B2, “Compositions and methods for increasing tetrahydrobiopterin plasma exposure” (PTC Therapeutics MP, Inc., priority 2018, dated 2025)
Read-outs that look alike come from different tables or passages of the source.

Legend:
[1] = Pharmacokinetics of multiple doses of sepiapterin in fed subjects; assay type: in vivo
Text: Methods: Three cohorts of eight fed subjects each were randomized to receive once-daily sepiapterin or placebo for 7 days in a 6:2 ratio. A sentinel dose strategy was also used for administration of the highest sepiapterin dose.

[2] = CSF levels of sepiapterin, BH4, BH2 and neurotransmitter metabolites after sepiapterin; assay type: in vivo; details: 60 mg/kg; Day 1 or Day 7 +/-30 minutes from BH4 Tmax
Protocol: The cerebrospinal fluid (CSF) of selected subjects is collected via lumbar puncture on Day1 (before dose) and on Day 7 (i.e., following daily dosing for 7 days) approximately 30 minutes from time of the maximum observed plasma BH4 concentration (Tmax) as determined from the blood analysis. The cerebral spinal fluid (CSF) is analyzed by MNG Labs. Descriptive statistics are provided to characterize any changes in neurotransmitter metabolism between the Day 1, and Day 7 sample results. Method: Analyses were conducted in CSF samples of subjects administered 60 mg/kg sepiapterin or placebo. The following analytes were measured: sepiapterin, BH4, BH2, homovanillic acid (HVA), and 5-hydroxyindoleacetic acid (HIAA). Descriptive (n, mean, SD, median, minimum, maximum) statistics for these analytes at Day 1 and Day 7+/−30 minutes from Tmax and change from baseline at Day 7 were determined for each analyte.

[3] = Food effect on sepiapterin: plasma sepiapterin and BH4 in fasted and fed subjects; assay type: in vivo; details: sepiapterin 10 mg/kg oral
Protocol: Method: Subjects received 2 oral doses of sepiapterin (10 mg/kg) separated by 1 week in a fasted and fed state. Subjects were fed a standard high-fat (approximately 50 percent of total caloric content of the meal) and high-calorie (approximately 800 to 1000 calories) meal starting 30 minutes prior to receiving their second oral dose of sepiapterin on Day 8.
Sampling for PK analysis occurred predose on Days 1 and 8 (within 30 minutes before dosing) and 0.5 hr, 1 hr, 2 hr, 4 hr, 8 hr, 12 hr, and 24 hr after the doses on Days 1 and 8. The blood concentrations of sepiapterin and BH4 were analyzed by MNG Labs.

[4] = assay type: in vivo
Protocol: Method: Twelve subjects were given a single dose (10 mg/kg) of sepiapterin under fasting conditions and then 7 days later under fed conditions. Standard definitions of adverse events (AE) were used. All-cause AE were those that occurred at any time; treatment-emergent adverse events (TEAE) were those that occurred at or after the time of administration of study treatment. TEAEs related to study drug were based on the opinion of the investigator. Serious AE were defined as life threatening or caused death, hospitalization or prolongation of existing hospitalization, or were a persistent or significant disability/incapacity or a substantial disruption of the ability to conduct normal life functions, or a congenital anomaly/birth defect.

Which results are given for `C[C@H](O)C(=O)C1=Nc2c(nc(N)[nH]c2=O)NC1` [sepiapterin, Sepiapterin]?
AUC0-24 of sepiapterin ([1]; Day 7, 60 mg/kg once daily): 23 ng·h/mL; Drug accumulation (plasma sepiapterin and BH4 after 1 and 7 days of treatment) ([1]; once daily for 7 days): no drug accumulation; Sepiapterin in the CSF [2]: not detected; Maximum sepiapterin concentration in plasma ([3]; fasted, 0 h (predose)): 0 nM; Mean sepiapterin concentration in plasma ([3]; fasted, 0 h (predose)): 0 nM; Median sepiapterin concentration in plasma ([3]; fasted, 0 h (predose)): 0 nM; Maximum sepiapterin concentration in plasma ([3]; fasted, 8 h): 0 nM; Mean sepiapterin concentration in plasma ([3]; fasted, 8 h): 0 nM; Median sepiapterin concentration in plasma ([3]; fasted, 8 h): 0 nM; Maximum sepiapterin concentration in plasma ([3]; fasted, 12 h): 0 nM; Mean sepiapterin concentration in plasma ([3]; fasted, 12 h): 0 nM; Median sepiapterin concentration in plasma ([3]; fasted, 12 h): 0 nM; Maximum sepiapterin concentration in plasma ([3]; fasted, 24 h): 0 nM; Mean sepiapterin concentration in plasma ([3]; fasted, 24 h): 0 nM; Median sepiapterin concentration in plasma ([3]; fasted, 24 h): 0 nM; Maximum sepiapterin concentration in plasma ([3]; fed, 0 h (predose)): 0 nM; Mean sepiapterin concentration in plasma ([3]; fed, 0 h (predose)): 0 nM; Median sepiapterin concentration in plasma ([3]; fed, 0 h (predose)): 0 nM; concentration at 2 h ([3]; fed, 0 h (predose), read-out: Minimum sepiapterin concentration in plasma): 0 nM; Median sepiapterin concentration in plasma ([3]; fed, 0.5 h): 0 nM; concentration at 2 h ([3]; fed, 0.5 h, read-out: Minimum sepiapterin concentration in plasma): 0 nM; concentration at 2 h ([3]; fed, 4 h, read-out: Minimum sepiapterin concentration in plasma): 0 nM; Median sepiapterin concentration in plasma ([3]; fed, 8 h): 0 nM; concentration at 2 h ([3]; fed, 8 h, read-out: Minimum sepiapterin concentration in plasma): 0 nM; Maximum sepiapterin concentration in plasma ([3]; fed, 12 h): 0 nM; Mean sepiapterin concentration in plasma ([3]; fed, 12 h): 0 nM; Median sepiapterin concentration in plasma ([3]; fed, 12 h): 0 nM; concentration at 2 h ([3]; fed, 12 h, read-out: Minimum sepiapterin concentration in plasma): 0 nM; Maximum sepiapterin concentration in plasma ([3]; fed, 24 h): 0 nM; Mean sepiapterin concentration in plasma ([3]; fed, 24 h): 0 nM; Median sepiapterin concentration in plasma ([3]; fed, 24 h): 0 nM; concentration at 2 h ([3]; fed, 24 h, read-out: Minimum sepiapterin concentration in plasma): 0 nM; concentration at 0 h ([3]; human, plasma, fasted, 0 h (predose), read-out: Minimum sepiapterin concentration in plasma): 0 nM; concentration at 0.5 h ([3]; human, plasma, fasted, 0.5 h, read-out: Minimum sepiapterin concentration in plasma): 0 nM; concentration at 4 h ([3]; human, plasma, fasted, 4 h, read-out: Minimum sepiapterin concentration in plasma): 0 nM; concentration at 8 h ([3]; human, plasma, fasted, 8 h, read-out: Minimum sepiapterin concentration in plasma): 0 nM; concentration at 12 h ([3]; human, plasma, fasted, 12 h, read-out: Minimum sepiapterin concentration in plasma): 0 nM; concentration at 24 h ([3]; human, plasma, fasted, 24 h, read-out: Minimum sepiapterin concentration in plasma): 0 nM; concentration at 1 h ([3]; human, plasma, fed, 1 h, read-out: Minimum sepiapterin concentration in plasma): 0 nM; concentration at 2 h ([3]; human, plasma, fed, 2 h, read-out: Minimum sepiapterin concentration in plasma): 0 nM; Geometric mean ratio (fasted/fed, 90% CI) for plasma sepiapterin AUClast ([3]; fasted/fed): 1.29 (0.84 to 2.00); Geometric mean ratio (fasted/fed, 90% CI) for plasma sepiapterin Cmax ([3]; fasted/fed): 1.57 (1.21 to 2.0); Cmax of BH4 in the plasma, fed compared to fasted ([3]; fed vs fasted): much higher; Cmax of sepiapterin in the plasma, fed compared to fasted ([3]; fed vs fasted): much lower; TEAE ([4]; human, in vivo, 10 mg/kg): 4; TEAE related to study drug ([4]; human, in vivo, 10 mg/kg): 1; ≥1 AE ([4]; human, in vivo, 10 mg/kg): 5; Incidence of adverse events, fed compared to fasted subjects ([4]; single dose 10 mg/kg, fed vs fasted): decreased incidence of adverse events
